The values that follow come from ChEMBL document CHEMBL1157881, “Optimization of arylindenopyrimidines as potent adenosine A(2A)/A(1) antagonists” (Bioorg Med Chem Lett, 2010).

pKi: −log10 of the molar value. The source made the active and inactive calls. The rule behind the calls is not given here.

The target of data set [1] is T1, Adenosine receptor A1 (Homo sapiens, UniProt P30542).
T1 sequence (P30542 whole entry): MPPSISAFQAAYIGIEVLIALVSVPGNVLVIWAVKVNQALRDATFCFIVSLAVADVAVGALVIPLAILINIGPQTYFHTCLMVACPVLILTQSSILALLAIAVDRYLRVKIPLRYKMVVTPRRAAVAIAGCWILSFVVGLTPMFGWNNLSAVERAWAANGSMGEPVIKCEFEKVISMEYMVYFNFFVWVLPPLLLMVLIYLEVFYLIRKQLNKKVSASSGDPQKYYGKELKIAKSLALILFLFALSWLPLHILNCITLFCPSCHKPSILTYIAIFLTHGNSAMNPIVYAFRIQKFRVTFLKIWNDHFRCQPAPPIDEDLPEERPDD
Nature of the data set: Antagonistic activity at adenosine A1 receptor. It is filed as functional.

The target in data set [2] is Adenosine receptor A2a (Homo sapiens, UniProt P29274). Nature of the data set: Antagonistic activity at adenosine A2A receptor. The format is functional.
Sequence of Adenosine receptor A2a (P29274 whole entry): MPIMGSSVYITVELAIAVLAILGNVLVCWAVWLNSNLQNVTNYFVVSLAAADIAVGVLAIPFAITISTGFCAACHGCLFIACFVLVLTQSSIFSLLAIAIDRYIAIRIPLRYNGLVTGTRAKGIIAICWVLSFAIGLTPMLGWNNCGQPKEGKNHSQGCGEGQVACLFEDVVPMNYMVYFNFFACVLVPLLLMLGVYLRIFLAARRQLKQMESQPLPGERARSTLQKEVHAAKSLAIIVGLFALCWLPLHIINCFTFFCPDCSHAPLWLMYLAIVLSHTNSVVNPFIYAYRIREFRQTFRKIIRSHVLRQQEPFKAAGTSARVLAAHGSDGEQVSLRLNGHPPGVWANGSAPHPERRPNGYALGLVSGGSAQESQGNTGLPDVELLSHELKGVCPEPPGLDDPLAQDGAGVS
The test system of data set [3] is Mus musculus. Nature of the data set: Antagonist activity against haloperidol-induced catalepsy in po dosed mouse. The format is functional.
Data set [4] is described as follows: Cmax in rat brain. It is filed as ADME, organism-based.
The subject of data set [5] is Mus musculus. Briefly: Antagonist activity against haloperidol-induced catalepsy in mouse at 3 mg/kg, po. Also on record: dose 3 mg/kg. It is filed as functional, organism-based.
For data set [6], the system named is Mus musculus. Briefly: Antagonist activity against haloperidol-induced catalepsy in mouse at 10 mg/kg, po. The format is functional, organism-based. Set-up: dose 10 mg/kg.

On to `Nc1nc(-c2ccccc2)c2c(n1)-c1cc(NCCc3ccncc3)ccc1C2=O`, for which the pKi in data set [1] is 7.90; in data set [2] it was 9.05.

Turning to `Nc1nc(-c2ccccc2)c2c(n1)-c1cc(OCCN3CCCC3)ccc1C2=O`, in data set [3], the ED50 is below 1 mg/kg. In addition, the pKi is 6.80 in data set [1] and 7.71 in data set [2].

For the compound `CN(C)CCOc1ccc2c(c1)-c1nc(N)nc(-c3ccc(F)cc3)c1C2=O`, the pKi in data set [1] and in data set [2] was 7.43 in each case.

Compound `CN1CCN(c2ccc3c(c2)-c2nc(N)nc(-c4ccccc4)c2C3=O)CC1` yielded an ED50 in data set [3] below 1 mg/kg. The pKi in data set [1] is 7.45; in data set [2], 8.57.

On to `CC(C)N(CCOc1ccc2c(c1)-c1nc(N)nc(-c3ccccc3)c1C2=O)C(C)C`, for which the ED50 in data set [3] was below 1 mg/kg. The pKi in data set [1] is 6.73; in data set [2], 7.86.

Compound `CN1CCN(C(=O)c2ccc3c(c2)-c2nc(N)nc(-c4ccccc4)c2C3=O)CC1` yielded a peak concentration (Cmax) in data set [4] of 0.6 µM. The compound further came in with an ED50 in data set [3] of 0.4 mg/kg.

As for `CCN(CC)CCN(C)C(=O)c1ccc2c(c1)-c1nc(N)nc(-c3ccccc3)c1C2=O`, the ED50 in data set [3] is below 1 mg/kg. The pKi is 7.02 in data set [1] and 8.11 in data set [2].

As to `CCN1CCN(C(=O)c2ccc3c(c2)-c2nc(N)nc(-c4ccccc4)c2C3=O)CC1`, the ED50 in data set [3] is below 1 mg/kg. For the same compound, the results for the pKi in data set [1] and in data set [2] were 7.17 and 7.83, respectively.

For `CC(C)N(CCOc1ccc2c(c1)-c1nc(N)nc(-c3ccc(F)cc3)c1C2=O)C(C)C`, the pKi in data set [1] was 6.33; in data set [2], 7.12.

As to `CCN(CC)CCOc1ccc2c(c1)-c1nc(N)nc(-c3ccc(F)cc3)c1C2=O`, the pKi in data set [1] is 6.38; in data set [2], 7.30.

In turn, `Nc1nc(-c2ccccc2)c2c(n1)-c1cc(CN3CCCC3)ccc1C2=O` displayed a Cmax in data set [4] of 3.6 µM.

Compound `Nc1nc(-c2ccccc2)c2c(n1)-c1cc(NCCN3CCOCC3)ccc1C2=O` came in with an ED50 in data set [3] below 1 mg/kg. In addition, the values for the pKi in data set [1] and in data set [2] were 7.49 and 8.36, respectively.

With `Nc1nc(-c2ccccc2)c2c(n1)-c1cc(C(=O)N3CCNCC3)ccc1C2=O`, the pKi in data set [1] is 7.91; in data set [2], 7.49.

On to `CCN(CC)CCOc1ccc2c(c1)-c1nc(N)nc(-c3ccccc3)c1C2=O`, for which the ED50 in data set [3] was below 1 mg/kg. In addition, the pKi in data set [1] is 6.99; in data set [2], 8.10.

The compound `Nc1nc(-c2ccccc2)c2c(n1)-c1cc(OCCN3CCOCC3)ccc1C2=O` had a Cmax in data set [4] of 4.1 µM. For the same compound, in data set [3], the ED50 is below 1 mg/kg. This compound also showed a pKi in data set [1] of 7.32.

As for `CN(C)CCN(C)C(=O)c1ccc2c(c1)-c1nc(N)nc(-c3ccccc3)c1C2=O`, the ED50 in data set [3] was below 1 mg/kg. In addition, the pKi in data set [1] was 6.68; in data set [2] it was 7.91.

With `CN(C)CCN(C)c1ccc2c(c1)-c1nc(N)nc(-c3ccccc3)c1C2=O`, the results for the pKi in data set [1] and in data set [2] were 7.24 and 8.33, respectively.

Turning to `CN(C)CCOc1ccc2c(c1)-c1nc(N)nc(-c3ccccc3)c1C2=O`, the ED50 in data set [3] is below 3 mg/kg. For the same compound, the results for the pKi in data set [1] and in data set [2] were 7.48 and 7.76, respectively.

With `CCN(CC)CCNC(=O)c1ccc2c(c1)-c1nc(N)nc(-c3ccccc3)c1C2=O`, the results for the pKi in data set [1] and in data set [2] were 7.34 and 7.87, respectively.

Consider `CN1CCC(N(C)C(=O)c2ccc3c(c2)-c2nc(N)nc(-c4ccccc4)c2C3=O)CC1`, for which, in data set [3], the ED50 is below 1 mg/kg. Besides, the pKi in data set [1] is 6.59; in data set [2], 7.73.

For `Nc1nc(-c2ccccc2)c2c(n1)-c1cc(NCCN3CCS(=O)(=O)CC3)ccc1C2=O`, in data set [5], the result was inactive. In addition, the pKi in data set [1] was 7.33; in data set [2], 8.51.

As to `CN1CCCN(c2ccc3c(c2)-c2nc(N)nc(-c4ccccc4)c2C3=O)CC1`, the negative-log Ki (pKi) is 6.86 in data set [1] and 8.00 in data set [2].

As to `Nc1nc(-c2ccccc2)c2c(n1)-c1cc(N3CCOCC3)ccc1C2=O`, the figures for the pKi in data set [1] and in data set [2] were 7.49 and 8.54, respectively.

Turning to `Nc1nc(-c2ccc(F)cc2)c2c(n1)-c1cc(OCCN3CCCC3)ccc1C2=O`, in data set [3], the 50% effect level (ED50) was put at a dose of 0.8 mg/kg. Further, the pKi in data set [1] was 6.22; in data set [2], 6.93.

Take `CCN1CCN(C(=O)c2ccc3c(c2)-c2nc(N)nc(-c4ccc(F)cc4)c2C3=O)CC1`: the values for the pKi in data set [1] and in data set [2] were 6.72 and 7.49, respectively.

As for `CCN1CCC(N(C)c2ccc3c(c2)-c2nc(N)nc(-c4ccccc4)c2C3=O)CC1`, the negative-log Ki (pKi) in data set [1] is 7.79; in data set [2], 8.31.

Regarding `Nc1nc(-c2ccccc2)c2c(n1)-c1cc(OCCN3CCCCC3)ccc1C2=O`, the pKi in data set [1] is 6.71; in data set [2], 7.45.

With `Nc1nc(-c2ccc(F)cc2)c2c(n1)-c1cc(OCCN3CCOCC3)ccc1C2=O`, in data set [3], the ED50 is below 1 mg/kg. Moreover, the negative-log Ki (pKi) in data set [1] is 6.69; in data set [2], 7.74.

As to `Nc1nc(-c2ccccc2)c2c(n1)-c1cc(C(=O)NCCN3CCOCC3)ccc1C2=O`, the pKi was 6.67 in data set [1] and 7.55 in data set [2].

`CCN1CCN(c2ccc3c(c2)-c2nc(N)nc(-c4ccccc4)c2C3=O)CC1` had an ED50 in data set [3] below 1 mg/kg. Further, the pKi was 6.59 in data set [1] and 7.94 in data set [2].

With `CC(C)N1CCN(C(=O)c2ccc3c(c2)-c2nc(N)nc(-c4ccccc4)c2C3=O)CC1`, the pKi is 7.08 in data set [1] and 7.68 in data set [2].

For the compound `Nc1nc(-c2ccccc2)c2c(n1)-c1cc(NCCc3ccccn3)ccc1C2=O`, the pKi is 7.81 in data set [1] and 9.05 in data set [2].

Consider `Nc1nc(-c2ccccc2)c2c(n1)-c1cc(N3CCN(CC4CC4)CC3)ccc1C2=O`, for which the results for the pKi in data set [1] and in data set [2] were 6.60 and 7.63, respectively.

For `CN1CCN(C(=O)c2ccc3c(c2)-c2nc(N)nc(-c4ccc(F)cc4)c2C3=O)CC1`, in data set [3], the ED50 was below 1 mg/kg. The pKi is 7.00 in data set [1] and 7.95 in data set [2].

`CC(C)N1CCC(NC(=O)c2ccc3c(c2)-c2nc(N)nc(-c4ccccc4)c2C3=O)CC1` gave an ED50 in data set [3] of 0.4 mg/kg. For the same compound, the pKi is 6.92 in data set [1] and 7.77 in data set [2].

With `Nc1nc(-c2ccc(F)cc2)c2c(n1)-c1cc(OCCN3C4CCC3CC4)ccc1C2=O`, in data set [6], the outcome was inactive. For the same compound, the negative logarithm of the Ki (pKi) in data set [1] was 6.47; in data set [2], 7.45.

With `CCN1CCC(Nc2ccc3c(c2)-c2nc(N)nc(-c4ccccc4)c2C3=O)CC1`, the result in data set [5] was inactive. Moreover, the pKi in data set [1] is 6.85; in data set [2], 7.90.

The term pKi denotes the Ki on a negative log10 scale, so that one unit is a factor of ten. A low value points to a high Ki. By ED50 is commonly meant the midpoint of the dose-response relation. One may read the Cmax as the peak of the concentration-time curve.
